# Results taken from patent publication US20120277180A1, “Cofactors and Methods for Use for Individuals” (VITAPATH GENETICS, INC, priority 2009, published 2012).
# Positions count from the first letter of the chain named. Names may count otherwise. “Also recorded” adds a separate entry of the source. Like-named read-outs stand apart in the source and are kept apart here.
# B1: 1278T: homocystinuria allele of human CBS, vitamin B6-responsive (protein, UniProt P35520 1-551, looked up, variant I278T)
# Cystathionine beta-synthase: MPSETPQAEVGPTGCPHRSGPHSAKGSLEKGSPEDKEAKEPLWIRPDAPSRCTWQLGRPASESPHHHTAPAKSPKILPDILKKIGDTPMVRINKIGKKFGLKCELLAKCEFFNAGGSVKDRISLRMIEDAERDGTLKPGDTIIEPTSGNTGIGLALAAAVRGYRCIIVMPEKMSSEKVDVLRALGAEIVRTPTNARFDSPESHVGVAWRLKNEIPNSHILDQYRNASNPLAHYDTTADEILQQCDGKLDMLVASVGTGGTITGIARKLKEKCPGCRITGVDPEGSILAEPEELNQTEQTTYEVEGIGYDFIPTVLDRTVVDKWFKSNDEEAFTFARMLIAQEGLLCGGSAGSTVAVAVKAAQELQEGQRCVVILPDSVRNYMTKFLSDRWMLQKGFLKEEDLTEKKPWWWHLRVQELGLSAPLTVLPTITCGHTIEILREKGFDQAPVVDEAGVILGMVTLGNMLSSLLAGKVQPSDQVGKVIYKQFKQIRLTDTLGRLSHILEMDHFALVVHEQIQYHSTGKSSQRQMVFGVVTAIDLLNFVAAQERDQK
# B2: R266K: homocystinuria allele of human CBS, vitamin B6-responsive (protein, UniProt P35520 1-551, looked up, variant R266K)
# Cystathionine beta-synthase: B1 Cystathionine beta-synthase with R266K, T278I
# Experiments:
# human MTHFR [1] = target: T1, human MTHFR (Homo sapiens, UniProt P42898); assay: In vivo yeast complementation growth assay: MTHFR alleles in fol3 met13 haploid yeast, growth without methionine with titrated folinic acid; assay type: cell-based; conditions: folinic acid above 50 ug/ml; fol3 met13 cells
# T1 construct: expressed in transfected cells; host or cells: Saccharomyces cerevisiae fol3Δ::KanMX met13Δ::KanMX (S288c background), GAL1 promoter
# T1 sequence (P42898 whole entry): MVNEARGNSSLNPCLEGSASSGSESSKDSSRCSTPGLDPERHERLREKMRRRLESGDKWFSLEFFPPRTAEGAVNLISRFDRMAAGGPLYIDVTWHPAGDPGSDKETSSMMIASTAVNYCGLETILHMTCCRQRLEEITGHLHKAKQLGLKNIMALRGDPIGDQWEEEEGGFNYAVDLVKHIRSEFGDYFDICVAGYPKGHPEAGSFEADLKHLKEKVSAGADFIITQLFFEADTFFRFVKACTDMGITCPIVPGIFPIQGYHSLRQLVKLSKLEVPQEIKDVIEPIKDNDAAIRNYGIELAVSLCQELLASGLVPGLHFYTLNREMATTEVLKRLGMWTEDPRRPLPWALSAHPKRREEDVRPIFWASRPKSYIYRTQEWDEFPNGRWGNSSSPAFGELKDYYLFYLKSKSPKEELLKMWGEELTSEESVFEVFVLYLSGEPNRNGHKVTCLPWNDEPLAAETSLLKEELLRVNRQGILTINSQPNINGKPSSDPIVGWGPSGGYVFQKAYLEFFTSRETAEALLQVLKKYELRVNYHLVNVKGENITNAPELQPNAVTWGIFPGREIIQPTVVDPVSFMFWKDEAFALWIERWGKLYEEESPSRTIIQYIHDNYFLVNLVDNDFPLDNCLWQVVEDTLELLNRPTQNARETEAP
# [2] = system: fol3Δ::KanMX MET13 haploid yeast; assay type: cell-based, S. cerevisiae; conditions: for Effect of folinic acid supplementation on growth: fol3Δ MET13 cells
# [3] = upper level of intake considered safe for adults; cited from earlier work
# human MTHFR [4] = assay: In vivo yeast complementation growth assay: MTHFR alleles in fol3 met13 haploid yeast, growth without methionine with titrated folinic acid; assay type: cell-based; conditions: for Functional impact / folate-responsiveness of MTHFR allele (growth in the absence of methionine): over a range of folinic acid concentrations, relative to the major allele; for Interaction of substitutions in compound (double-substitution) alleles with A222V: growth at 50 and 25 ug/ml folinic acid
# human MTHFR [5] = assay: Thermolability of MTHFR variants (heat treatment at 55° C. before enzyme assay); assay type: biochemical
# Method: MTHFR enzyme activity assay. The assay, which measures the reverse reaction of that catalyzed by MTHFR under physiological conditions, was as described (Shan et al, 1999, supra) with the following modifications: Yeast extracts were created by bead lysis of 40 CD595 cell equivalents (fol3Δ met13Δ cells supplemented with folinic acid and methionine as above) in 350 ul of Lysis Buffer (100 mM Sucrose, 50 mM KHPO4 (pH 6.3), protease inhibitor cocktail). Extracts were clarified by a brief microcentrifugation, and 10-200 ug of extract used to determine the linear range of activity. Radiolabeled substrate (5-[^14C]MeTHF) was from GE Healthcare Life Sciences. For heat treatment, the reaction mixes without 5-[^14C]MeTHF were heated to 55° C. for the indicated times at which point 5-[^14C]MeTHF was added back and the reaction proceeded.
# In addition to measuring specific activity, variants were tested for thermolability (a measure of enzyme stability) by heat treatment at 55° C. for various times.
# human CBS = assay: Yeast complementation assay for CBS as a function of pyridoxine (cys4, sno/snz sextuple-delete strain); assay type: cell-based; conditions: qualitative growth on solid media
molecule,measurement,setting,value
5-formyl-tetrahydrofolate [folinic acid],Effect of folinic acid supplementation on growth of cells expressing the major human MTHFR allele,human MTHFR [1],did not confer a significant growth advantage
same,Folinic acid supplementation compared to growth of FOL3 cells,[2]; fol3Δ cells vs FOL3 cells,did not completely compensate for lack of endogenous folate biosynthesis
same,Effect of folinic acid supplementation on growth,[2]; folinic acid above 50 ug/ml,did not confer any significant growth advantage
same,Effect of folinic acid supplementation on growth,[2]; folinic acid below 50 ug/ml,growth clearly correlated with available folinic acid in the medium
C[N+](C)(C)CCO [Choline],UL (Upper Limit),[3],3500 mg
O=C(O)c1cccnc1 [Niacin],UL (Upper Limit),[3],35 mg
O=C1O[C@H]([C@@H](O)CO)C(O)=C1O [Vitamin C],UL (Upper Limit),[3],2000 mg
"A222V: common functionally impaired human MTHFR variant, catalytic domain substitution A222V",Functional impact / folate-responsiveness of MTHFR allele (growth in the absence of methionine),human MTHFR [4],folate-remedial behavior
same,Thermolability,human MTHFR [5],lost nearly all activity
"D223N: novel low-frequency human MTHFR variant, catalytic domain substitution D223N",Functional impact / folate-responsiveness of MTHFR allele (growth in the absence of methionine),human MTHFR [4],folate-remedial activity similar to A222V (though less severely impaired); also recorded: folate-remedial behavior
same,Thermolability,human MTHFR [5],increased thermolability
"D291N: low-frequency human MTHFR variant, catalytic domain substitution D291N",Interaction of substitutions in compound (double-substitution) alleles with A222V,human MTHFR [4],synergized when combined with A222V
same,Functional impact / folate-responsiveness of MTHFR allele (growth in the absence of methionine),human MTHFR [4],folate-remedial behavior
"H213R: low-frequency human MTHFR variant, catalytic domain substitution H213R",Functional impact / folate-responsiveness of MTHFR allele (growth in the absence of methionine),human MTHFR [4],benign
M110I A222V: doubly-substituted compound human MTHFR allele,Interaction of substitutions in compound (double-substitution) alleles with A222V,human MTHFR [4],functioned more poorly than the sum of the individual alleles
"M110I: low-frequency human MTHFR variant, catalytic domain substitution M110I",MTHFR function (growth) relative to the major allele,human MTHFR [4]; 50 ug/ml folinic acid,nearly indistinguishable from the major allele
same,Interaction of substitutions in compound (double-substitution) alleles with A222V,human MTHFR [4],synergized when combined with A222V
same,Functional impact / folate-responsiveness of MTHFR allele (growth in the absence of methionine),human MTHFR [4],folate-remedial behavior
same,Functional impact / folate-responsiveness of MTHFR allele (growth in the absence of methionine),human MTHFR [4]; listed as MilOl,folate-remedial activity similar to A222V (though less severely impaired)
"R134C: low-frequency human MTHFR variant, catalytic domain substitution R134C",Functional impact / folate-responsiveness of MTHFR allele (growth in the absence of methionine),human MTHFR [4],"severely impaired at all folate concentrations; also recorded: responsive, but not a remedial allele; also recorded: nearly loss-of-function"
"R519C: low-frequency human MTHFR variant, regulatory domain substitution R519C",Functional impact / folate-responsiveness of MTHFR allele (growth in the absence of methionine),human MTHFR [4],benign
Vitamin B-6,UL (Upper Limit),[3],100 mg
"major allele: most common human MTHFR allele in the population, expressed in yeast",Functional impact / folate-responsiveness of MTHFR allele (growth in the absence of methionine),human MTHFR [4],did not completely compensate for loss of Met13p
B1,Rescue of cys4 yeast growth defect as a function of pyridoxine supplementation,human CBS,more sensitive than the wild-type enzyme to limiting B6 levels
B2,Rescue of cys4 yeast growth defect as a function of pyridoxine supplementation,human CBS,more sensitive than the wild-type enzyme to limiting B6 levels
